Where a SMILES comes first, the peptide text is derived from it. Bridges are numbered along the chain shown (N, C = ends). [ ]: non-standard residue; d: D form. The star is where a group is joined. Threoninol(2S,3R) = C[C@@H](O)[C@H](CO)N*
Assays:
[1] = biological target: T1, Muscarinic acetylcholine receptor M5 (Homo sapiens, UniProt P08912); assay type: cell membranes, CHO-K1, Membrane; settings: cho-k1; note: in other assays of this panel Not Active means under 50% inhibition at 10 µM
T1 sequence (P08912 whole entry): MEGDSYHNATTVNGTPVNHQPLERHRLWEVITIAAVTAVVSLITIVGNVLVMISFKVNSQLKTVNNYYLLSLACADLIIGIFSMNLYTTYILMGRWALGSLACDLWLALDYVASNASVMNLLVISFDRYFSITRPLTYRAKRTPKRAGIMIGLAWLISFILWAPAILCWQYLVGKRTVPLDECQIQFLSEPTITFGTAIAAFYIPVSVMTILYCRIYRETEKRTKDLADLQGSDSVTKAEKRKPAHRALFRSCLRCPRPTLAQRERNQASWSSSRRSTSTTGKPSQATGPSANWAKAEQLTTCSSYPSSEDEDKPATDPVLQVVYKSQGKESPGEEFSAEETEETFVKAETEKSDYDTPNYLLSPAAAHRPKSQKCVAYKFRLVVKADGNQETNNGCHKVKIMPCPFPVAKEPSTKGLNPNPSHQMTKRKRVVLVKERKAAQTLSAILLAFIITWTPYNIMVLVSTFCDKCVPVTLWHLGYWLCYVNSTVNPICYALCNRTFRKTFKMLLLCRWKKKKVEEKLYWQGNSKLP

[2] = biological target: T2, Nitric oxide synthase, inducible (Mus musculus, UniProt P29477); design: species or system Escherichia coli;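 note: inhibition of iNOS enzyme activity measured with L-arginine as substrate; in other assays of this panel Not Active means under 50% inhibition at 10 µM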
T2 sequence (P29477 whole entry): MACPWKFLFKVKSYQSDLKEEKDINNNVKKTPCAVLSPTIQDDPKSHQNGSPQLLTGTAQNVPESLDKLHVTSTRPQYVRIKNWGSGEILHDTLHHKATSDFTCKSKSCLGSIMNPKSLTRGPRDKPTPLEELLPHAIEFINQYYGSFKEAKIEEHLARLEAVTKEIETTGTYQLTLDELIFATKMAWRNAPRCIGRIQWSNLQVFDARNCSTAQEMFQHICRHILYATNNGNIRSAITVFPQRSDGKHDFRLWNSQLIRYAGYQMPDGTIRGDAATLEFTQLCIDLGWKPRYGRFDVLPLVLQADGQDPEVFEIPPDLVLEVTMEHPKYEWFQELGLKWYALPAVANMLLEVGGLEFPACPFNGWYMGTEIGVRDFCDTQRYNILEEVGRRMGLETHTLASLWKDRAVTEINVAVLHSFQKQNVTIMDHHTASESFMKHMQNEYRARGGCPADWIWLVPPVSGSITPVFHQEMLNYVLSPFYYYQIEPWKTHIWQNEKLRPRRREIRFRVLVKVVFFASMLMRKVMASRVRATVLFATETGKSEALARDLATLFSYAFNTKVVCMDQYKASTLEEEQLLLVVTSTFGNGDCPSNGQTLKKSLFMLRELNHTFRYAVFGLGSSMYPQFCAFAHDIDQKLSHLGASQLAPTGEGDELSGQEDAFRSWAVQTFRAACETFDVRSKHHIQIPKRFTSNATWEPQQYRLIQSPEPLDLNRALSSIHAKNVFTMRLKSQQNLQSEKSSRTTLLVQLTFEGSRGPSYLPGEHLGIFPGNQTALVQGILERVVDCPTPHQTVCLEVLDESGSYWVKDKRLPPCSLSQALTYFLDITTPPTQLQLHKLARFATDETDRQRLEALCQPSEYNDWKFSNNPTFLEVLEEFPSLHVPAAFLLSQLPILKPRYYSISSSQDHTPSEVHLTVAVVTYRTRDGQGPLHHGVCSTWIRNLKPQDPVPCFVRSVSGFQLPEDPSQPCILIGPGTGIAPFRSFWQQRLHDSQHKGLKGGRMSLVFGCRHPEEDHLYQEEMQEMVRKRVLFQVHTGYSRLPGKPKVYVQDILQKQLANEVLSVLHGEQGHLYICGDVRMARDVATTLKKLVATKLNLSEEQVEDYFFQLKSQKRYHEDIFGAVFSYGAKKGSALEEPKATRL

[3] = biological target: 5-hydroxytryptamine receptor 6 (Homo sapiens, UniProt P50406); assay type: cell membranes, HeLa, Membrane; settings: hela; note: in other assays of this panel Not Active means under 50% inhibition at 10 µM
Chain of 5-hydroxytryptamine receptor 6 (P50406 whole entry): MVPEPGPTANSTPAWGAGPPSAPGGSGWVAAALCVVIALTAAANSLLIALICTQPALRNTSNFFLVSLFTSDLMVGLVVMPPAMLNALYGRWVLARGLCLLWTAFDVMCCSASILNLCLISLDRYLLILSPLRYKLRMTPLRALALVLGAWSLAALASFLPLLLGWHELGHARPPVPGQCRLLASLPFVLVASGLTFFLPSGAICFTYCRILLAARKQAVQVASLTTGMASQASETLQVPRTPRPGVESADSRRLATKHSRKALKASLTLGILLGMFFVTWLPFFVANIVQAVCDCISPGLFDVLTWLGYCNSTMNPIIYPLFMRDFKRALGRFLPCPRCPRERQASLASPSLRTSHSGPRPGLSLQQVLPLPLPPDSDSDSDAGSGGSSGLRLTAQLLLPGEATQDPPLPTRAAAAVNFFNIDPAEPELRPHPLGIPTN

[4] = biological target: Beta-2 adrenergic receptor (Homo sapiens, UniProt P07550); experiment: DRUGMATRIX: Adrenergic beta2 radioligand binding (ligand: [3H] CGP-12177); assay type: cell membranes, Membrane; settings: cho; Not Active = under 50% inhibition at 10 µM
Chain of Beta-2 adrenergic receptor (P07550 whole entry): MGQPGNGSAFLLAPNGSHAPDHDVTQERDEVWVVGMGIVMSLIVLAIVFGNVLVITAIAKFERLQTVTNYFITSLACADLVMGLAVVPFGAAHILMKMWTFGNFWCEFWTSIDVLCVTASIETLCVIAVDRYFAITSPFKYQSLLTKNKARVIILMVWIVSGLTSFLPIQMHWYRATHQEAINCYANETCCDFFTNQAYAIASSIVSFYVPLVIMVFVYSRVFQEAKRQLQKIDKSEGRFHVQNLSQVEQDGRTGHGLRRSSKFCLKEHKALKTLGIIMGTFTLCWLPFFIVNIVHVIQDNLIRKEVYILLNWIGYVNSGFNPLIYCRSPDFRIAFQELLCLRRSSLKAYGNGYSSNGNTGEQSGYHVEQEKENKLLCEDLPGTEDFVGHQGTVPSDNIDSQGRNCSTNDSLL

[5] = biological target: T3, Alpha-1D adrenergic receptor (Homo sapiens, UniProt P25100); assay type: cell membranes, HEK293, Membrane; settings: hek293; note: in other assays of this panel Not Active means under 50% inhibition at 10 µM
T3 sequence (P25100 whole entry): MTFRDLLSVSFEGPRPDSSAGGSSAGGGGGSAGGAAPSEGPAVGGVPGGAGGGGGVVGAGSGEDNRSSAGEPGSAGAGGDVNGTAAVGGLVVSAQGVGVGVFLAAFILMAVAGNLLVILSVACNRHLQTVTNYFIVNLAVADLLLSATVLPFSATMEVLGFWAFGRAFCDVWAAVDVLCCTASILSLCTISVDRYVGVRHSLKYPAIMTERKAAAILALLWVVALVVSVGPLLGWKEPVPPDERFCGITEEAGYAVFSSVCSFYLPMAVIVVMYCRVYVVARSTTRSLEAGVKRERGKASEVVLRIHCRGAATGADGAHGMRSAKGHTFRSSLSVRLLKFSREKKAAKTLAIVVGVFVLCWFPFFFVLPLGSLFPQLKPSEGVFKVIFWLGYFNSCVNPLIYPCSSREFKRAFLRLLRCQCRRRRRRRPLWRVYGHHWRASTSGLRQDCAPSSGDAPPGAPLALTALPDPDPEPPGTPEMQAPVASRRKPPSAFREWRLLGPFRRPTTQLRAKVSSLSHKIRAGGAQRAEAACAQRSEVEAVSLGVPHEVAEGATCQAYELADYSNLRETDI

[6] = biological target: C-C chemokine receptor type 5 (Homo sapiens, UniProt P51681); assay type: cell membranes, HEK293, Membrane; settings: hek293; note: in other assays of this panel Not Active means under 50% inhibition at 10 µM
Chain of C-C chemokine receptor type 5 (P51681 whole entry): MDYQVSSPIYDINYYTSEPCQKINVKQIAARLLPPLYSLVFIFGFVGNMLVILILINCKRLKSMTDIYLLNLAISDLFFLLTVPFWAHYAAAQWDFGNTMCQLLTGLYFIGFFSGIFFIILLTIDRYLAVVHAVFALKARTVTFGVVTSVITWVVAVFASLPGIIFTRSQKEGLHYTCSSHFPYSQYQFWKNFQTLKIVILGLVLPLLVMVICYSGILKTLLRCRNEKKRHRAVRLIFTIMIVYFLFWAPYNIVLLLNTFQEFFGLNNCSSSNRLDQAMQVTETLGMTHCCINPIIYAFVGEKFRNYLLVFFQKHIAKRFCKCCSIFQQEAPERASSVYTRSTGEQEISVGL

[7] = biological target: Beta-3 adrenergic receptor (Homo sapiens, UniProt P13945); experiment: DRUGMATRIX: Adrenergic beta3 radioligand binding (ligand: [125I] Cyanopindolol); assay type: cell membranes, Membrane; settings: hek293; Not Active = under 50% inhibition at 10 µM
Chain of Beta-3 adrenergic receptor (P13945 whole entry): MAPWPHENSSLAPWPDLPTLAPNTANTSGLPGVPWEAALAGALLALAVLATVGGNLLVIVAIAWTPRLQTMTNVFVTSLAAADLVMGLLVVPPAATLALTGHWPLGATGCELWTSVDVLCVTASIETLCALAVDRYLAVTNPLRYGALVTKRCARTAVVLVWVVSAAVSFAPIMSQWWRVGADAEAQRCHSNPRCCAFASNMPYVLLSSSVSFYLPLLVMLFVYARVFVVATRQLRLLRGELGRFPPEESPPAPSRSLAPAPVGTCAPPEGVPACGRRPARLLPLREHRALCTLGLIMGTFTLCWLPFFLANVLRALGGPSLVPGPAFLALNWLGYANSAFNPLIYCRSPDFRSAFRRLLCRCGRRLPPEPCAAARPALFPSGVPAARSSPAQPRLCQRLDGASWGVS

Measured: IC50

COc1ccccc1C(=O)N1CCC(Cc2ccccc2)CC1
Not Active: [1] | [2] | [3] | [4] | [5] | [6] | [7]

Cc1ccccc1C(=O)N1CCC(Cc2ccccc2)CC1
Not Active: [1] | [2] | [3] | [4] | [5] | [6] | [7]

O=C1CC[C@H](N2C(=O)c3ccccc3C2=O)C(=O)N1
Not Active: [1] | [2] | [3] | [4] | [5] | [6] | [7]

N=C(Nc1ccccc1)Nc1ccccc1
Not Active: [1] | [2] | [3] | [4] | [5] | [6] | [7]

C[C@@H](O)[C@H](CO)NC(=O)[C@@H]1CSSC[C@H](NC(=O)[C@H](N)Cc2ccccc2)C(=O)N[C@@H](Cc2ccccc2)C(=O)N[C@H](Cc2c[nH]c3ccccc23)C(=O)N[C@@H](CCCCN)C(=O)N[C@@H]([C@@H](C)O)C(=O)N1 (H-[dF]CF[dW]KTC-{Threoninol(2S,3R)}; disulfide 2-7)
Not Active: [1] | [2] | [3] | [4] | [5] | [6] | [7]

S=C=Nc1cccc2ccccc12 [1-NAPHTHYLISOTHIOCYANATE]
Not Active: [1] | [2] | [3] | [4] | [5] | [6] | [7]

C[C@](O)(CS(=O)(=O)c1ccc(F)cc1)C(=O)Nc1ccc(C#N)c(C(F)(F)F)c1 [(R)-BICALUTAMIDE]
Not Active: [1] | [2] | [3] | [4] | [5] | [6] | [7]

CCCC(=O)Nc1ccc(OCC(O)CNC(C)C)c(C(C)=O)c1 (centres undefined) [ACEBUTOLOL]
Not Active: [1] | [2] | [3] | [5] | [6] | [7]

CC(=O)Nc1ccc(O)cc1 [ACETAMINOPHEN]
Not Active: [1] | [2] | [3] | [4] | [5] | [6] | [7]

O=C1CC2(CCCC2)CC(=O)N1CCCCN1CCN(c2ncccn2)CC1 [BUSPIRONE]
Not Active: [1] | [2] | [3] | [4] | [6] | [7]

OC(CCN1CCCCC1)(c1ccccc1)C1CCCCC1 (centres undefined) [TRIHEXYPHENIDYL]
Not Active: [2] | [3] | [4] | [5] | [6] | [7]

Reference: ChEMBL document CHEMBL1909046, “DrugMatrix in vitro pharmacology data”
